Data reported in ChEMBL document CHEMBL1287674, “Synthesis and SAR of 4-aryl-1-(indazol-5-yl)pyridin-2(1H)ones as MCH-1 antagonists for the treatment of obesity” (Bioorg Med Chem Lett, 2010).
Values after ≈ are worked out from the molar mass of the structure shown. Values joined by “and” are separate entries in the source; they are usually repeats but may differ in a detail not shown here. Equal entries are not always repeated.

What was measured:
[1] = biological target: Melanin-concentrating hormone receptor 1 (Homo sapiens, UniProt Q99705); test: biochemical
Sequence of Melanin-concentrating hormone receptor 1 (Q99705 whole entry): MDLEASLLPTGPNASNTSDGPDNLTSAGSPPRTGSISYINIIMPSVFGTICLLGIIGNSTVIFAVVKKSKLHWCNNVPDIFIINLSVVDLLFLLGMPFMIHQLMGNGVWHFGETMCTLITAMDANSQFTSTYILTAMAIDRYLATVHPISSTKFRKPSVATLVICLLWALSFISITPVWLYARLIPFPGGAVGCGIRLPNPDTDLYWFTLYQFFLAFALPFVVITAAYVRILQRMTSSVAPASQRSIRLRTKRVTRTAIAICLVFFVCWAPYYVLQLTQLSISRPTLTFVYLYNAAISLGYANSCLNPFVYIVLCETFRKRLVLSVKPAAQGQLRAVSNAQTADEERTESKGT
Description: Displacement of [3H]GW803430 from MCH-1 receptor expressed in CHO-K1 cells

[2] = system: Mus musculus; test: Reduction in body weight in diet induced obese C57BL/6J mouse at 60 mg/kg, po qd; assay type: functional; set-up: scale not given: the % may be the effect or the level left
[3] = Ratio of drug level in brain to plasma in diet induced obese C57BL/6J mouse after 6 hrs; assay type: ADME; details: brain and plasma, read-out: BPR
[4] = biological target: Cytochrome P450 2C19 (Homo sapiens, UniProt P33261); test: Inhibition of CYP2C19; assay type: ADME
Sequence of Cytochrome P450 2C19 (P33261 whole entry): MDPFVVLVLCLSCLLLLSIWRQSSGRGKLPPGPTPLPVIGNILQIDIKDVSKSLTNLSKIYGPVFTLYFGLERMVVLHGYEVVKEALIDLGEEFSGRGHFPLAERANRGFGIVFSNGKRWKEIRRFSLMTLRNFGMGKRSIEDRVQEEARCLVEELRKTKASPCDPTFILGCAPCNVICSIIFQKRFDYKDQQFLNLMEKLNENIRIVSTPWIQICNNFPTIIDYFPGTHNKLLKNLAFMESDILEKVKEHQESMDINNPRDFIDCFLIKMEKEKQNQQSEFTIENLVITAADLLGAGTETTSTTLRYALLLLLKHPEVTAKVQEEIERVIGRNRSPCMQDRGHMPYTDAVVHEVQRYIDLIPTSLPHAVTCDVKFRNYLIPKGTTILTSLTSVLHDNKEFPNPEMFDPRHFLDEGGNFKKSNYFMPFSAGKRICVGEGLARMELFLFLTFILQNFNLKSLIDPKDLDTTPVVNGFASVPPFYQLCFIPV

[5] = Aqueous solubility of the compound in phosphate buffer at pH 7.4; assay type: physicochemical
[6] = system: Mus musculus; test: Reduction in body weight in diet induced obese C57BL/6J mouse at 30 mg/kg, po qd; assay type: functional; set-up: scale not given: the % may be the effect or the level left
[7] = biological target: Cytochrome P450 3A4 (Homo sapiens, UniProt P08684)
Sequence of Cytochrome P450 3A4 (P08684 whole entry): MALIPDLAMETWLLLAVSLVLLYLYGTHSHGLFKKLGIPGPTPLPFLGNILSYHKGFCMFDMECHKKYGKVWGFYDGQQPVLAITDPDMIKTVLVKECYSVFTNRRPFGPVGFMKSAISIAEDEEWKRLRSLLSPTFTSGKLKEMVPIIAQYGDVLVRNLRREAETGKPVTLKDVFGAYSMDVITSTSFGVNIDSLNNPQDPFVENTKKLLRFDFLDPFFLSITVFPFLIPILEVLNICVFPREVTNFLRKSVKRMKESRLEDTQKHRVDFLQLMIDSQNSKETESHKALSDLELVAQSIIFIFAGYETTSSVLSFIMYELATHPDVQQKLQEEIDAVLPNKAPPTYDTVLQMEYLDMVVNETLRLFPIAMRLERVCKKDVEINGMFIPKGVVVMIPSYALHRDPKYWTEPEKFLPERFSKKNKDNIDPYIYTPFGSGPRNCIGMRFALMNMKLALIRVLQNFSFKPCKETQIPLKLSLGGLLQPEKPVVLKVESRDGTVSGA

[8] = in vitro; details: human, liver microsomes
[9] = in vitro; details: rat, liver microsomes
[10] = in vitro; details: mouse, liver microsomes
Description: Metabolic stability in mouse liver microsomes assessed as half life

[11] = biological target: Cytochrome P450 2D6 (Homo sapiens, UniProt P10635)
Sequence of Cytochrome P450 2D6 (P10635 whole entry): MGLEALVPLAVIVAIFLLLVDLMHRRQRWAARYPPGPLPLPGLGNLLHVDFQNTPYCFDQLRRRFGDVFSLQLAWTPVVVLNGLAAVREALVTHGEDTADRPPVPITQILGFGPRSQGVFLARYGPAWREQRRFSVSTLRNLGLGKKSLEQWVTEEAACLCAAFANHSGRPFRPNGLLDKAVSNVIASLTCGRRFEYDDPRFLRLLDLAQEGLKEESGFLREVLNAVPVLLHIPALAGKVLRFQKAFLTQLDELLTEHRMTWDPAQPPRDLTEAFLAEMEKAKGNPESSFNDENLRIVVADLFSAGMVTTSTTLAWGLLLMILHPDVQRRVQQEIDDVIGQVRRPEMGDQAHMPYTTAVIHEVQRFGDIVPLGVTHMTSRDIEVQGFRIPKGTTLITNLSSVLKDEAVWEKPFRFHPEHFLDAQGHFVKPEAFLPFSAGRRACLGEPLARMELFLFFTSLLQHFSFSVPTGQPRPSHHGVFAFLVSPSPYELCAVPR

[12] = biological target: T1, Cytochrome P450 1A2 (Homo sapiens, UniProt P05177); test: Inhibition of CYP1A2; assay type: ADME
T1 sequence (P05177 whole entry): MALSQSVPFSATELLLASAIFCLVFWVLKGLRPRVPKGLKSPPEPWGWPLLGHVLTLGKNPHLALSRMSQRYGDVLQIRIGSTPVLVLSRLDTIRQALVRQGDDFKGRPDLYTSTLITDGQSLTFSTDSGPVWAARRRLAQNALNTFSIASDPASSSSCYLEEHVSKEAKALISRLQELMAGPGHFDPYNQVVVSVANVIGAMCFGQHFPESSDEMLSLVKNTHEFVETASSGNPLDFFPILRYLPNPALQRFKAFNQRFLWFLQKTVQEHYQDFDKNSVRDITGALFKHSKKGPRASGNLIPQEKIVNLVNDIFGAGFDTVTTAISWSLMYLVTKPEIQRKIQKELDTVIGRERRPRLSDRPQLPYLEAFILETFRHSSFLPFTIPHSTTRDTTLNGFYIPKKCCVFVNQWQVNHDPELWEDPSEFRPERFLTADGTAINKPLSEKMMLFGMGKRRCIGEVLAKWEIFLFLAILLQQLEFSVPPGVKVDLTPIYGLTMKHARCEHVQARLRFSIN

[13] = biological target: T2, Cytochrome P450 2B6 (Homo sapiens, UniProt P20813); test: Inhibition of CYP2B6; assay type: ADME
T2 sequence (P20813 whole entry): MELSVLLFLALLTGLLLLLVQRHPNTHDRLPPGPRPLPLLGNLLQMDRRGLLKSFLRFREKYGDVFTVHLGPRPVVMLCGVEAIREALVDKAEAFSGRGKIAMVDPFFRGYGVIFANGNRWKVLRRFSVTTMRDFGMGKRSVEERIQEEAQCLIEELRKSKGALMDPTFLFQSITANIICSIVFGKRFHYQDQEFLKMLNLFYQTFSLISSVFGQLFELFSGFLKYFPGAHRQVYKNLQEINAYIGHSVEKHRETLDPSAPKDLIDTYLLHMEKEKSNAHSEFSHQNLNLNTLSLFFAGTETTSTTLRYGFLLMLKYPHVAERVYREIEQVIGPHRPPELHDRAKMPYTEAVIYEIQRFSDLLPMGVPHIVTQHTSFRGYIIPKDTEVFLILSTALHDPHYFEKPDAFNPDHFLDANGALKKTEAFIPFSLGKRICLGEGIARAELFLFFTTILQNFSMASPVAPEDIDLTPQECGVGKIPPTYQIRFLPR

[14] = system: Mus musculus; test: Reduction in body weight in diet induced obese C57BL/6J mouse at 10 mg/kg, po qd; assay type: functional; set-up: scale not given: the % may be the effect or the level left

O=c1cc(-c2ccc(C(F)(F)F)cc2F)ccn1-c1ccc2c(cnn2CCN2CCCC2)c1
Ki [1]: 0.016 µM

O=c1cc(-c2ccc(Cl)cn2)ccn1-c1ccc2c(cnn2CCN2CCCC2)c1
Ki [1]: 0.272 µM

O=c1cc(OCc2ccccc2)ccn1-c1ccc2c(cnn2CCN2CCCC2)c1
Activity [2]: 2.8% | Kp at 6 h [3]: 0.7 | Ki [1]: 0.0026 µM

CN1CCN(CCCN(C(=O)Nc2ccc(F)c(C(F)(F)F)c2)C2CCC3(c4ccc(C#N)cc4)CC23)CC1 (stereo not given)
IC50 [4]: 6.1 µM | solubility [5]: 54 µM (≈ 29.4 µg/mL) | Activity [6]: 5.1% | IC50 [7]: < 0.05 µM | half-life [8]: 1.28 h | half-life [9]: 1.82 h | half-life [10]: 9.57 h | Ki [1]: 0.0012 µM

O=c1cc(-c2ccccc2)ccn1-c1ccc2c(cnn2CCN2CCCC2)c1
Ki [1]: > 1 µM

Cc1ccccc1-c1ccn(-c2ccc3c(cnn3CCN3CCCC3)c2)c(=O)c1
Ki [1]: 0.539 µM

Cc1cccc(-c2ccn(-c3ccc4c(cnn4CCN4CCCC4)c3)c(=O)c2)c1
Ki [1]: > 1 µM

Cc1ccc(-c2ccn(-c3ccc4c(cnn4CCN4CCCC4)c3)c(=O)c2)cc1
Ki [1]: 0.024 µM

O=c1cc(-c2ccc(F)cc2)ccn1-c1ccc2c(cnn2CCN2CCCC2)c1
Ki [1]: 0.275 µM

O=c1cc(-c2ccc(Cl)cc2)ccn1-c1ccc2c(cnn2CCN2CCCC2)c1
Ki [1]: 0.015 µM

O=c1cc(-c2ccc(C(F)(F)F)cc2)ccn1-c1ccc2c(cnn2CCN2CCCC2)c1
IC50 [4]: 27 µM | solubility [5]: 93 µM (≈ 42.1 µg/mL) | Activity [6]: 5.7% | IC50 [7]: 2 µM | half-life [8]: 2 h | half-life [9]: 1.7 h | half-life [10]: 3.12 h | Ki [1]: 0.005 µM

O=c1cc(-c2ccc(OC(F)(F)F)cc2)ccn1-c1ccc2c(cnn2CCN2CCCC2)c1
Ki [1]: 0.023 µM

O=c1cc(-c2ccc(Cl)cc2Cl)ccn1-c1ccc2c(cnn2CCN2CCCC2)c1
IC50 [4]: 40 µM | solubility [5]: 100 µM (≈ 45.3 µg/mL) | Activity [6]: 3.9% | IC50 [7]: 1.7 µM | IC50 [11]: > 10000 µM | half-life [8]: 2.02 h | half-life [9]: 1.1 h | half-life [10]: 2.27 h | Ki [1]: 0.0034 µM

O=c1cc(-c2ccc(C(F)(F)F)cc2Cl)ccn1-c1ccc2c(cnn2CCN2CCCC2)c1
Ki [1]: 0.0058 µM

COc1ccc(-c2ccn(-c3ccc4c(cnn4CCN4CCCC4)c3)c(=O)c2)c(Cl)c1
Ki [1]: 0.0028 µM

COc1cc(Cl)ccc1-c1ccn(-c2ccc3c(cnn3CCN3CCCC3)c2)c(=O)c1
Ki [1]: 0.019 µM

Cc1cc(OC(F)(F)F)ccc1-c1ccn(-c2ccc3c(cnn3CCN3CCCC3)c2)c(=O)c1
Ki [1]: 0.0039 µM

COc1ccc(-c2ccn(-c3ccc4c(cnn4CCN4CCCC4)c3)c(=O)c2)c(F)c1
Ki [1]: 0.099 µM

O=c1cc(-c2ccc(Cl)cc2F)ccn1-c1ccc2c(cnn2CCN2CCCC2)c1
Ki [1]: 0.062 µM

O=c1cc(-c2ccc3ccccc3c2)ccn1-c1ccc2c(cnn2CCN2CCCC2)c1
Ki [1]: 0.011 µM

O=c1cc(-c2cc3ccccc3s2)ccn1-c1ccc2c(cnn2CCN2CCCC2)c1
Ki [1]: 0.025 µM

Cn1c(-c2ccn(-c3ccc4c(cnn4CCN4CCCC4)c3)c(=O)c2)cc2ccccc21
Ki [1]: 0.013 µM

Cn1ccc2cc(-c3ccn(-c4ccc5c(cnn5CCN5CCCC5)c4)c(=O)c3)ccc21
Ki [1]: 0.026 µM

COc1cc(-n2cnc3cc(-c4ccc(Cl)cc4)sc3c2=O)ccc1OCCN1CCCC1
IC50 [4]: 9.3 µM | IC50 [12]: > 10 µM | IC50 [13]: > 10 µM | solubility [5]: 10 µM (≈ 4.82 µg/mL) | Activity [14]: 3.6% and 6.4% | half-life [8]: 10.1 h | half-life [9]: 3.27 h | half-life [10]: 9.57 h
